Results reported in patent publication US20130158362A1 (INFACARE PHARMACEUTICAL CORPORATION, priority 2011, published 2013).

System: total serum bilirubin (TSB)
Experiment: Phase 2b trial: total serum bilirubin (TSB), adjusted and unadjusted, change from baseline
Format: in vivo, human
Parameters: total serum bilirubin / total serum bilirubin, Delta (change from baseline) / Change from baseline of total serum bilirubin: unit not given here
Conditions: for change from baseline in adjusted TSB, LS mean difference versus placebo, MMRM / change from baseline in adjusted TSB, LS means (SEM), MMRM: observed case
Experimental: Three cohorts of subjects were recruited. This clinical study was designed to evaluate safety and efficacy parameters in each cohort.
Scheduled assessments (including TSB) occurred before treatment and at 0.75 and 2 hours (or 1.5 and 3 hours, depending on PK blood sampling assignment); 6, 12, 24, 48, and 72 hours; and 14 and 30 (except TSB) days after treatment or early termination.
The primary efficacy endpoint was the change in adjusted TSB from baseline to 48 hours after treatment. The adjusted TSB was a calculation of the percentage variance of the TSB level from the age specific threshold for PT initiation per the AAP Guidelines, i.e., an indication of the distance below the PT threshold by time.
The Secondary Efficacy Endpoints were the change from baseline in unadjusted TSB at 48 hours after treatment, change from baseline in adjusted and unadjusted TSB at various other time points after treatment, percent change from baseline in unadjusted TSB, proportion of subjects who require PT/exchange transfusion (ET), time to PT/ET, duration of PT and time to hospital discharge.
Intent-to-treat population (ITT): Defined as all subjects who were randomly assigned treatment in the clinical study, had received IMP, and had at least 1 post baseline TSB measurement during the first 48 hours after treatment. Subjects were summarized based on randomized treatment.
Analysis of Efficacy Parameters: The primary efficacy analysis applied the analysis of covariance (ANCOVA) method to determine if there was a significant difference between treatment groups in change in adjusted TSB levels from baseline to 48 hours post baseline after controlling for the effects of gestational age and adjusted baseline TSB levels. If assumptions of ANCOVA appeared to be violated, a Wilcoxon rank-sum test could be performed instead. Time-to-event variables were analyzed using the Kaplan-Meier method, and Kaplan-Meier survival curves were presented.

[1] = 4.5 mg/kg IM, 24 h, ITT, LOCF, ANCOVA
[2] = 4.5 mg/kg IM, 48 h/early termination, ITT, LOCF
[3] = 4.5 mg/kg IM, 48 h, ITT, LOCF, ANCOVA
[4] = 4.5 mg/kg IM, 48 hours, intent to treat, preliminary data
[5] = 4.5 mg/kg IM, 72 h, ITT, LOCF, ANCOVA
[6] = 4.5 mg/kg IM, 14 days/early termination, ITT, LOCF
[7] = 4.5 mg/kg IM, 14 days/early termination, ITT, LOCF, ANCOVA
[8] = 4.5 mg/kg versus the placebo group, 48 Hours/Early termination, PP Population, ANCOVA
[9] = 4.5 mg/kg, 48 Hours/Early termination, PP Population, LOCF
[10] = 4.5 mg/kg, 6 hrs, unadjusted TSB, ITT Population
[11] = 4.5 mg/kg, 12 hrs, unadjusted TSB, ITT Population
[12] = 4.5 mg/kg, 24 hrs, unadjusted TSB, ITT Population
[13] = 4.5 mg/kg, 48 hrs, unadjusted TSB, ITT Population
[14] = 4.5 mg/kg, baseline, PP Population
[15] = 4.5 mg/kg, baseline, unadjusted TSB, ITT Population

## tin IV mesoporphyrin IX dichloride [Stannsoporfin]
4.5 mg/kg IM, 24 h, ITT, LOCF
  change from baseline in adjusted TSB, Median: −11.15%
  change from baseline in unadjusted TSB, Mean (SD): 0.93 (1.990) mg/dL
  change from baseline in unadjusted TSB, Median: 1.20 mg/dL
  unadjusted TSB, Mean (SD): 10.52 (2.668) mg/dL
  unadjusted TSB, Median: 9.66 mg/dL
[1]
  change from baseline in adjusted TSB, LS mean (SEM): −11.59 (5.674) %
  change from baseline in adjusted TSB, LS mean difference versus placebo: −11.50%
  change from baseline in unadjusted TSB, LS Mean (SEM): 1.05 (0.665) mg/dL
  change from baseline in unadjusted TSB, LS Mean Difference versus placebo: -1.70 mg/dL
4.5 mg/kg IM, 24 h, ITT
  change from baseline in adjusted TSB, LS mean difference versus placebo, MMRM: −14.70%
  change from baseline in adjusted TSB, LS means (SEM), MMRM: −16.26 (5.495) %
[2]
  adjusted TSB, Mean (SD): −34.14 (14.733) %
  adjusted TSB, Median: −32.00%
4.5 mg/kg IM, 48 h, ITT, LOCF
  change from baseline in adjusted TSB, Mean (SD): −24.95 (19.261) %
  change from baseline in adjusted TSB, Median: −19.95%
  change from baseline in unadjusted TSB, Mean (SD): 0.80 (2.788) mg/dL
  change from baseline in unadjusted TSB, Median: 1.45 mg/dL
  unadjusted TSB, Mean (SD): 10.39 (2.650) mg/dL
  unadjusted TSB, Median: 10.35 mg/dL
[3]
  change from baseline in adjusted TSB, LS mean (SEM) (primary endpoint): −16.51 (6.925) %
  change from baseline in adjusted TSB, LS mean difference versus placebo: −14.93%
  change from baseline in unadjusted TSB, LS Mean (SEM): 1.60 (1.020) mg/dL
  change from baseline in unadjusted TSB, LS Mean Difference versus placebo: -2.63 mg/dL
4.5 mg/kg IM, 48 h, ITT, LOCF, ANCOVA, listed as stannsoporfin
  change from baseline in adjusted TSB, LS mean (SEM) (primary endpoint): 16.5%
4.5 mg/kg IM, 48 h, ITT
  change from baseline in adjusted TSB, LS mean difference versus placebo, MMRM: −20.66%
  change from baseline in adjusted TSB, LS means (SEM), MMRM: −27.34 (7.287) %
[4]
  total serum bilirubin: 10.39 ± 2.7
  total serum bilirubin, Delta (change from baseline): 0.80 ± 2.8
4.5 mg/kg IM, 48 hours, treated per protocol, preliminary data
  total serum bilirubin, Delta (change from baseline): 0.04 ± 3.1
4.5 mg/kg IM, 72 h/early termination, ITT, LOCF
  adjusted TSB, Mean (SD): −38.38 (16.637) %
4.5 mg/kg IM, 72 h, ITT, LOCF
  change from baseline in adjusted TSB, Mean (SD): −29.19 (19.225) %
  change from baseline in adjusted TSB, Median: −21.45%
  change from baseline in unadjusted TSB, Mean (SD): 0.15 (3.740) mg/dL
  change from baseline in unadjusted TSB, Median: 1.90 mg/dL
  unadjusted TSB, Mean (SD): 9.73 (3.672) mg/dL
  unadjusted TSB, Median: 11.15 mg/dL
[5]
  change from baseline in adjusted TSB, LS mean (SEM): −19.00 (8.184) %
  change from baseline in adjusted TSB, LS mean difference versus placebo: −14.25%
  change from baseline in unadjusted TSB, LS Mean (SEM): 1.38 (1.305) mg/dL
  change from baseline in unadjusted TSB, LS Mean Difference versus placebo: -3.57 mg/dL
[6]
  change from baseline in unadjusted TSB, Mean (SD): −4.28 (3.828) mg/dL
  change from baseline in unadjusted TSB, Median: -5.73 mg/dL
  unadjusted TSB, Mean (SD): 5.31 (4.596) mg/dL
  unadjusted TSB, Median: 2.98 mg/dL
[7]
  change from baseline in unadjusted TSB, LS Mean (SEM): −3.02 (1.524) mg/dL
  change from baseline in unadjusted TSB, LS Mean Difference versus placebo: -0.72 mg/dL
[8]
  48 Hours/Early termination change from baseline in unadjusted TSB, LS mean difference: -2.82 mg/dL
  P-value of LS mean difference, change from baseline in unadjusted TSB: 0.030
[9]
  48 Hours/Early termination change from baseline in unadjusted TSB, Max: 3.6 mg/dL
  48 Hours/Early termination change from baseline in unadjusted TSB, Mean (SD): 0.40 (3.111) mg/dL
  48 Hours/Early termination change from baseline in unadjusted TSB, Median: 0.70 mg/dL
  48 Hours/Early termination change from baseline in unadjusted TSB, Min: -3.4 mg/dL
  48 Hours/Early termination unadjusted TSB, Max: 13.4 mg/dL
  48 Hours/Early termination unadjusted TSB, Mean (SD): 9.88 (2.807) mg/dL
  48 Hours/Early termination unadjusted TSB, Median: 10.00 mg/dL
  48 Hours/Early termination unadjusted TSB, Min: 5.6 mg/dL
4.5 mg/kg, 48 Hours/Early termination, PP Population, LOCF, ANCOVA
  48 Hours/Early termination change from baseline in unadjusted TSB, LS mean (SEM): 1.11 (1.095) mg/dL
[10]
  6 hrs Percent Change from Baseline in TSB, Max: 26.4%
  6 hrs Percent Change from Baseline in TSB, Mean (SD): 17.33 (5.373) %
  6 hrs Percent Change from Baseline in TSB, Min: 10.7%
  6 hrs TSB, Max: 14.8 mg/dL
  6 hrs TSB, Mean (SD): 11.31 (2.237) mg/dL
  6 hrs TSB, Min: 7.6 mg/dL
[11]
  12 hrs Percent Change from Baseline in TSB, Max: 29.2%
  12 hrs Percent Change from Baseline in TSB, Mean (SD): 20.16 (6.326) %
  12 hrs Percent Change from Baseline in TSB, Min: 9.8%
  12 hrs TSB, Max: 14.8 mg/dL
  12 hrs TSB, Mean (SD): 11.54 (2.067) mg/dL
  12 hrs TSB, Min: 8.0 mg/dL
[12]
  24 hrs Percent Change from Baseline in TSB, Max: 43.8%
  24 hrs Percent Change from Baseline in TSB, Mean (SD): 10.75 (23.016) %
  24 hrs Percent Change from Baseline in TSB, Median: 12.15%
  24 hrs Percent Change from Baseline in TSB, Min: −14.8%
  24 hrs TSB, Max: 14.0 mg/dL
  24 hrs TSB, Mean (SD): 10.52 (2.668) mg/dL
  24 hrs TSB, Min: 7.7 mg/dL
[13]
  48 hrs Percent Change from Baseline in TSB, Max: 56.3%
  48 hrs Percent Change from Baseline in TSB, Mean (SD): 14.87 (33.167) %
  48 hrs Percent Change from Baseline in TSB, Min: −37.7%
  48 hrs TSB, Max: 13.4 mg/dL
  48 hrs TSB, Mean (SD): 10.69 (2.708) mg/dL
  48 hrs TSB, Min: 5.6 mg/dL
4.5 mg/kg, 14 days after treatment (text, not LOCF table)
  mean TSB levels: 2.94 mg/dL
[14]
  Baseline unadjusted TSB, Max: 12.8 mg/dL
  Baseline unadjusted TSB, Mean (SD): 9.47 (2.319) mg/dL
  Baseline unadjusted TSB, Median: 9.00 mg/dL
  Baseline unadjusted TSB, Min: 6.4 mg/dL
[15]
  Baseline TSB, Max: 12.8 mg/dL
  Baseline TSB, Mean (SD): 9.59 (1.911) mg/dL
  Baseline TSB, Min: 6.4 mg/dL
Bilirubin levels, FIG. 7
  time after administration at which an effect begins: 6 to 12 h
